These results are taken from PubChem BioAssay (NCI).

SMILES strings stand for the structures.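 Exposure lasted 48 hours, with cells grown in 96-well plates and compounds tested at five concentrations. At the TGI there is no net growth.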 Bounds are passed on as bounds.

Among the test systems are HL-60(TB) leukemia; OVCAR-3 ovarian; NCI/ADR-RES ovarian; K-562 leukemia; A498 renal; HT29 colon; SR leukemia; NCI-H522 lung; SNB-19 CNS; CCRF-CEM leukemia; SK-MEL-28 melanoma; UACC-257 melanoma; T-47D breast; PC-3 prostate; MOLT-4 leukemia; DU-145 prostate; OVCAR-4 ovarian; SK-OV-3 ovarian; SW-620 colon.
Common to all, as to test: DTP human tumour cell line panel, 48 h

As to `CCS(=O)c1c2cc(OC)ccc2nc2ccc(OC)cc12` (configuration not stated), the concentration for total growth inhibition (TGI) is greater than 100 µM with HL-60(TB) leukemia; 14.9 µM with OVCAR-3 ovarian; 44.6 µM in the assay with NCI/ADR-RES ovarian; 5.81 µM in the assay with K-562 leukemia; 33.6 µM with A498 renal; 10 µM with HT29 colon. For the same molecule, the TGI was greater than 25 µM in the assay with SR leukemia; 3.97 µM in the assay with NCI-H522 lung; 45.4 µM with SNB-19 CNS; greater than 25.6 µM in the assay with CCRF-CEM leukemia; 23.4 µM with SK-MEL-28 melanoma; 12 µM with UACC-257 melanoma. Besides, the TGI is 5.85 µM in the assay on T-47D breast; 24.9 µM in the assay with PC-3 prostate; greater than 23.8 µM in the assay on MOLT-4 leukemia; 6.49 µM in the assay with DU-145 prostate; 36.1 µM in the assay on OVCAR-4 ovarian; 47.5 µM in the assay with SK-OV-3 ovarian. This molecule also gave a TGI with SW-620 colon greater than 65.9 µM.

For the molecule `CC/C(Cl)=N\OC(=O)Nc1ccc(OC)c(C)c1`, the TGI with HL-60(TB) leukemia is greater than 44.5 µM; in the assay on OVCAR-3 ovarian it was 50 µM; in the assay on NCI/ADR-RES ovarian, 37.5 µM; in the assay on K-562 leukemia it was greater than 91.2 µM; with A498 renal it was 61.2 µM; with HT29 colon it was 41.2 µM. In addition, the TGI with SR leukemia was 26.9 µM; with NCI-H522 lung, 4.18 µM; in the assay with SNB-19 CNS it was greater than 100 µM; with CCRF-CEM leukemia, greater than 38.8 µM; with SK-MEL-28 melanoma it was 62 µM; in the assay on UACC-257 melanoma, 37 µM. The TGI is 39.1 µM with T-47D breast; greater than 92.6 µM in the assay on PC-3 prostate; 47 µM in the assay with MOLT-4 leukemia; greater than 100 µM with DU-145 prostate; 36.5 µM in the assay on OVCAR-4 ovarian; greater than 100 µM in the assay on SK-OV-3 ovarian. In the assay with SW-620 colon, the TGI is greater than 68.8 µM.

For `O=C(COc1ccccc1)N(C(=O)N1CCN(c2ccccc2)CC1)S(=O)(=O)c1ccccc1`, the TGI in the assay with HL-60(TB) leukemia, with OVCAR-3 ovarian, in the assay on NCI/ADR-RES ovarian, in the assay on K-562 leukemia, with A498 renal and with HT29 colon was greater than 100 µM in each case. Also, the TGI in the assay on SR leukemia was 45.4 µM; with NCI-H522 lung, greater than 100 µM; with SNB-19 CNS, greater than 100 µM; in the assay with CCRF-CEM leukemia, 61.2 µM; in the assay with SK-MEL-28 melanoma, greater than 100 µM; in the assay with UACC-257 melanoma, greater than 100 µM. The TGI with T-47D breast is 87.6 µM; in the assay on PC-3 prostate, greater than 100 µM; in the assay with MOLT-4 leukemia it was 61.9 µM; in the assay on DU-145 prostate, greater than 100 µM; in the assay on OVCAR-4 ovarian, greater than 100 µM; in the assay on SK-OV-3 ovarian, greater than 100 µM. For the same molecule, in the assay with SW-620 colon, the TGI is greater than 100 µM.

Take `COC(=O)c1c(C)c2c(c(C)c1C(=O)OC)-c1c(C)ccc3ccc(C)c-2c13`: the TGI was greater than 50.7 µM in the assay with HL-60(TB) leukemia; greater than 100 µM in the assay on OVCAR-3 ovarian; greater than 100 µM with NCI/ADR-RES ovarian; greater than 100 µM in the assay on K-562 leukemia; greater than 100 µM in the assay with A498 renal; 29.6 µM with HT29 colon. Also, the TGI in the assay on SR leukemia is 46.9 µM; with NCI-H522 lung, greater than 100 µM; with SNB-19 CNS it was greater than 100 µM; in the assay on CCRF-CEM leukemia, greater than 100 µM; with SK-MEL-28 melanoma it was greater than 100 µM; with UACC-257 melanoma, greater than 100 µM. The TGI was greater than 95.7 µM in the assay with T-47D breast; greater than 100 µM in the assay on PC-3 prostate; greater than 100 µM in the assay with MOLT-4 leukemia; greater than 100 µM with DU-145 prostate; greater than 100 µM with OVCAR-4 ovarian; greater than 100 µM with SK-OV-3 ovarian. For the same molecule, the TGI with SW-620 colon was greater than 94.5 µM.

`CN(C)c1ccc(/C=N/c2nc3cc4sc(/N=C/c5ccc(N(C)C)cc5)nc4cc3s2)cc1`: the TGI in the assay with HL-60(TB) leukemia, in the assay with OVCAR-3 ovarian, in the assay with NCI/ADR-RES ovarian, in the assay on K-562 leukemia, in the assay on A498 renal and with HT29 colon was greater than 100 µM each time. The TGI in the assay with SR leukemia, with NCI-H522 lung, in the assay on SNB-19 CNS, in the assay with CCRF-CEM leukemia, in the assay with SK-MEL-28 melanoma and in the assay on UACC-257 melanoma was greater than 100 µM throughout. Further, the TGI with T-47D breast is greater than 100 µM; in the assay with PC-3 prostate, greater than 100 µM; in the assay with MOLT-4 leukemia, greater than 100 µM; in the assay with DU-145 prostate, 99.1 µM; in the assay on OVCAR-4 ovarian, greater than 100 µM; in the assay with SK-OV-3 ovarian it was greater than 100 µM. The molecule further returned a TGI with SW-620 colon greater than 100 µM.

With `COc1c(C(C)(C)C)cc(CC2C(=O)C=CC2=O)cc1C(C)(C)C`, the concentration for total growth inhibition (TGI) was 11.3 µM in the assay on HL-60(TB) leukemia; 33.9 µM with OVCAR-3 ovarian; greater than 80.6 µM with NCI/ADR-RES ovarian; 14.1 µM in the assay on K-562 leukemia; 32.9 µM in the assay with A498 renal; 36.1 µM in the assay on HT29 colon. The TGI with SR leukemia was 19.1 µM; in the assay with NCI-H522 lung, 5.03 µM; with SNB-19 CNS, 33.9 µM; in the assay on CCRF-CEM leukemia it was 14.9 µM; with SK-MEL-28 melanoma, 43.4 µM; in the assay on UACC-257 melanoma it was 32.4 µM. For the same molecule, the TGI was determined as 12.7 µM with T-47D breast; 35.8 µM with PC-3 prostate; 10.3 µM in the assay on MOLT-4 leukemia; 15.5 µM in the assay with DU-145 prostate; 89.5 µM with OVCAR-4 ovarian; 56 µM with SK-OV-3 ovarian. For the same molecule, in the assay with SW-620 colon, the TGI turned out to be 28.2 µM.

Consider `CN(C)CCCNC(=O)c1cc(NS(=O)(=O)c2ccc3c(c2)C(=O)c2ccccc2C3=O)cn1C`, for which the TGI with HL-60(TB) leukemia is 62.3 µM; with OVCAR-3 ovarian it was greater than 100 µM; in the assay on NCI/ADR-RES ovarian, greater than 100 µM; with K-562 leukemia, greater than 100 µM; in the assay with A498 renal, 42.6 µM; in the assay on HT29 colon, 81.4 µM. The TGI with SR leukemia was 85.2 µM; in the assay on NCI-H522 lung, 52.5 µM; in the assay with SNB-19 CNS it was 39.6 µM; in the assay on CCRF-CEM leukemia it was greater than 100 µM; in the assay on SK-MEL-28 melanoma it was 50.8 µM; with UACC-257 melanoma, 37.6 µM. For the same molecule, the TGI in the assay on T-47D breast was greater than 100 µM; in the assay on PC-3 prostate it was greater than 100 µM; in the assay with MOLT-4 leukemia it was greater than 100 µM; in the assay on DU-145 prostate, 76.3 µM; in the assay with OVCAR-4 ovarian it was 36.8 µM; in the assay on SK-OV-3 ovarian it was greater than 100 µM. In the assay with SW-620 colon, this molecule registered a TGI greater than 100 µM.

As for `Cc1ccc(S(=O)(=O)N/N=C2\CCCCCCCCCCC2CN(C)C)cc1` (configuration not stated), the TGI with HL-60(TB) leukemia was found to be 97.5 µM; in the assay with OVCAR-3 ovarian, 32.9 µM; in the assay with NCI/ADR-RES ovarian, 29.3 µM; in the assay with K-562 leukemia it was 56.5 µM; in the assay on A498 renal, 34.9 µM; in the assay with HT29 colon it was 29.5 µM. Also, the TGI with SR leukemia was greater than 100 µM; in the assay on NCI-H522 lung, 27.4 µM; in the assay on SNB-19 CNS it was 30.4 µM; with CCRF-CEM leukemia it was 37.2 µM; in the assay on SK-MEL-28 melanoma, 28.2 µM; in the assay on UACC-257 melanoma it was 28.7 µM. In addition, the TGI is 30.2 µM with T-47D breast; 30.3 µM with PC-3 prostate; greater than 100 µM in the assay on MOLT-4 leukemia; 34.8 µM in the assay with DU-145 prostate; 68.3 µM in the assay with OVCAR-4 ovarian; 36 µM with SK-OV-3 ovarian. Further, the TGI in the assay with SW-620 colon came out at 31.8 µM.
